Assay results published in publication PMC6982053, “GABAA Receptor Ligands Often Interact with Binding Sites in the Transmembrane Domain and in the Extracellular Domain—Can the Promiscuity Code Be Cracked?” (International Journal of Molecular Sciences, 2020).

Molecular target: T1, GABAA receptor α1β1 (β1 subunit) (Rattus norvegicus, UniProt P15431+P62813)
T1 construct: gene Gabrb1; rat α1β1 expressed in Xenopus laevis oocytes; with GABAA receptor α1 subunit
Test: two-electrode voltage clamp, modulation of GABA EC3-5 current (low efficacy)
Format: cell-based

T1 sequence (P15431 26-474): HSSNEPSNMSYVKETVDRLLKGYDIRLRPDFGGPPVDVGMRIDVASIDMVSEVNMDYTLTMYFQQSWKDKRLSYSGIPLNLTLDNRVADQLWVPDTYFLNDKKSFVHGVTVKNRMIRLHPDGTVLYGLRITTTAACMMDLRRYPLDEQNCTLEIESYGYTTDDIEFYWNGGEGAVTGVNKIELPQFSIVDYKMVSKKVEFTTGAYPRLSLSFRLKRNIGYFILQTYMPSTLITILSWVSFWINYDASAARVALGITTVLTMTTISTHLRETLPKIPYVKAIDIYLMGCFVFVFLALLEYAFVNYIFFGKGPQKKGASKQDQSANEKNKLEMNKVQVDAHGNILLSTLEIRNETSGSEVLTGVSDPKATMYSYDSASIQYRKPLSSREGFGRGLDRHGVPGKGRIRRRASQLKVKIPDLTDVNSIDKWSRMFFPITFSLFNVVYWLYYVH
T1 sequence (P62813 28-455): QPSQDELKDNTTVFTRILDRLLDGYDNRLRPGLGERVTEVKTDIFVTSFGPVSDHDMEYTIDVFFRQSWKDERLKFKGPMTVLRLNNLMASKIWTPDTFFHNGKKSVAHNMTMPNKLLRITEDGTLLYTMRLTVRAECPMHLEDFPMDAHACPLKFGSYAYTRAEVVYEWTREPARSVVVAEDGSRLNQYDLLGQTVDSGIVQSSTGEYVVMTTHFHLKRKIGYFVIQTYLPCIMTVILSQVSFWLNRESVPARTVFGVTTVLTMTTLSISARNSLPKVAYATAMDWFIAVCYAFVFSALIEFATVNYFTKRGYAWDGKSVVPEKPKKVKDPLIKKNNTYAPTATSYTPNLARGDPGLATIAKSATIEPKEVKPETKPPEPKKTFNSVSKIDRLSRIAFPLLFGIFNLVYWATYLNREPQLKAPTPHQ

O=C(O)c1[nH]c2ccc(Cl)cc2c1/N=N/c1ccc(Br)cc1 [MTI163, (E)-3-((4-bromophenyl)diazenyl)-5-chloro-1H-indole-2-carboxylic Acid]
EC50: 7.65 µM
